# Source: PubChem BioAssay (NCI)
#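 Where inhibition never reached the appropriate level, the endpoint shown equals the highest concentration tested. Otherwise, values were interpolated linearly from a five-concentration, 48-hour dose response in 96-well plates. GI50 is the concentration that inhibits growth by half. The concentration for full growth arrest is given as TGI.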
# Experiments:
# Experiment in all cases: NCI-60 cell line screen, 48 h
# HCT-116 colon = tested on: HCT-116 colon
# TK-10 renal = tested on: TK-10 renal
# LXFL 529 NSCLC = tested on: LXFL 529 NSCLC
# NCI-H460 lung = tested on: NCI-H460 lung
# HCC-2998 colon = tested on: HCC-2998 colon
# HOP-92 NSCLC = tested on: HOP-92 NSCLC
# UO-31 renal = tested on: UO-31 renal
# RXF 393 renal = tested on: RXF 393 renal
# SK-MEL-2 melanoma = tested on: SK-MEL-2 melanoma
# OVCAR-4 ovarian = tested on: OVCAR-4 ovarian
# ACHN renal = tested on: ACHN renal
# SNB-19 CNS = tested on: SNB-19 CNS
# KM20L2 colon = tested on: KM20L2 colon
# HT29 colon = tested on: HT29 colon
# XF 498 CNS = tested on: XF 498 CNS
# OVCAR-8 ovarian = tested on: OVCAR-8 ovarian
# RPMI-8226 leukemia = tested on: RPMI-8226 leukemia
# SF-539 CNS = tested on: SF-539 CNS
# U251 CNS = tested on: U251 CNS
# SK-OV-3 ovarian = tested on: SK-OV-3 ovarian
# CCRF-CEM leukemia = tested on: CCRF-CEM leukemia
# DLD-1 colon = tested on: DLD-1 colon
# DMS 273 small cell lung = tested on: DMS 273 small cell lung
# SR leukemia = tested on: SR leukemia
# HOP-62 NSCLC = tested on: HOP-62 NSCLC
# NCI-H226 lung = tested on: NCI-H226 lung
# NCI-H522 lung = tested on: NCI-H522 lung
# SK-MEL-5 melanoma = tested on: SK-MEL-5 melanoma
# COLO 205 colon = tested on: COLO 205 colon
# SK-MEL-28 melanoma = tested on: SK-MEL-28 melanoma
# HL-60(TB) leukemia = tested on: HL-60(TB) leukemia
# SF-268 CNS = tested on: SF-268 CNS
# M14 melanoma = tested on: M14 melanoma
# M19-MEL melanoma = tested on: M19-MEL melanoma
# SNB-78 CNS = tested on: SNB-78 CNS
# OVCAR-3 ovarian = tested on: OVCAR-3 ovarian
# SN12C renal = tested on: SN12C renal
# UACC-62 melanoma = tested on: UACC-62 melanoma
# LOX IMVI melanoma = tested on: LOX IMVI melanoma
# DMS 114 small cell lung = tested on: DMS 114 small cell lung
# MALME-3M melanoma = tested on: MALME-3M melanoma
# IGROV1 ovarian = tested on: IGROV1 ovarian
# K-562 leukemia = tested on: K-562 leukemia
# KM12 colon = tested on: KM12 colon
# SW-620 colon = tested on: SW-620 colon
# OVCAR-5 ovarian = tested on: OVCAR-5 ovarian
# A549 NSCLC = tested on: A549 NSCLC
# MOLT-4 leukemia = tested on: MOLT-4 leukemia
# HCT-15 colon = tested on: HCT-15 colon
# MDA-N = tested on: MDA-N
# MDA-MB-231 breast = tested on: MDA-MB-231 breast
# UACC-257 melanoma = tested on: UACC-257 melanoma
# 786-0 renal = tested on: 786-0 renal
# SNB-75 CNS = tested on: SNB-75 CNS
# PC-3 prostate = tested on: PC-3 prostate
# NCI-H23 lung = tested on: NCI-H23 lung
# DU-145 prostate = tested on: DU-145 prostate
# BT-549 breast = tested on: BT-549 breast
# MCF7 breast = tested on: MCF7 breast
# CAKI-1 renal = tested on: CAKI-1 renal
# SF-295 CNS = tested on: SF-295 CNS
# T-47D breast = tested on: T-47D breast
# NCI/ADR-RES ovarian = tested on: NCI/ADR-RES ovarian
# EKVX NSCLC = tested on: EKVX NSCLC
# MDA-MB-435 = tested on: MDA-MB-435
# HS 578T breast = tested on: HS 578T breast
# A498 renal = tested on: A498 renal
smiles,measurement,setting,value
Cc1cc2c(cc1O)[nH]c1cc3c(cc12)C=CC(C)(C)O3,GI50,HCT-116 colon,12.8 µM
same,TGI,HCT-116 colon,> 25 µM
same,TGI,TK-10 renal,> 25 µM
same,GI50,LXFL 529 NSCLC,9.31 µM
same,TGI,LXFL 529 NSCLC,> 25 µM
same,GI50,NCI-H460 lung,5.36 µM
same,TGI,NCI-H460 lung,12.4 µM
same,GI50,HCC-2998 colon,6.73 µM
same,TGI,HCC-2998 colon,14.5 µM
same,GI50,HOP-92 NSCLC,9.85 µM
same,TGI,HOP-92 NSCLC,> 25 µM
same,GI50,UO-31 renal,11.4 µM
same,TGI,UO-31 renal,> 25 µM
same,GI50,RXF 393 renal,4.93 µM
same,TGI,RXF 393 renal,11.5 µM
same,TGI,SK-MEL-2 melanoma,> 25 µM
same,TGI,OVCAR-4 ovarian,> 25 µM
same,GI50,ACHN renal,9.3 µM
same,TGI,ACHN renal,> 25 µM
same,TGI,SNB-19 CNS,> 25 µM
same,GI50,KM20L2 colon,9.35 µM
same,TGI,KM20L2 colon,> 25 µM
same,GI50,HT29 colon,11.8 µM
same,TGI,HT29 colon,> 25 µM
same,TGI,XF 498 CNS,> 25 µM
same,TGI,OVCAR-8 ovarian,9.41 µM
same,TGI,RPMI-8226 leukemia,> 25 µM
same,GI50,SF-539 CNS,4.08 µM
same,TGI,SF-539 CNS,9.96 µM
same,GI50,U251 CNS,6.06 µM
same,TGI,U251 CNS,14.3 µM
same,TGI,SK-OV-3 ovarian,> 25 µM
same,GI50,CCRF-CEM leukemia,19.8 µM
same,TGI,CCRF-CEM leukemia,> 25 µM
same,GI50,DLD-1 colon,12.7 µM
same,TGI,DLD-1 colon,> 25 µM
same,GI50,DMS 273 small cell lung,5.04 µM
same,TGI,DMS 273 small cell lung,12.2 µM
same,GI50,SR leukemia,6.39 µM
same,TGI,SR leukemia,24.9 µM
same,GI50,HOP-62 NSCLC,7.95 µM
same,TGI,HOP-62 NSCLC,24.4 µM
same,GI50,NCI-H226 lung,18.9 µM
same,TGI,NCI-H226 lung,> 25 µM
same,GI50,NCI-H522 lung,8.39 µM
same,TGI,NCI-H522 lung,> 25 µM
same,GI50,SK-MEL-5 melanoma,17.5 µM
same,TGI,SK-MEL-5 melanoma,> 25 µM
same,TGI,COLO 205 colon,> 25 µM
same,GI50,SK-MEL-28 melanoma,14.5 µM
same,TGI,SK-MEL-28 melanoma,> 25 µM
same,GI50,HL-60(TB) leukemia,6.98 µM
same,TGI,HL-60(TB) leukemia,> 25 µM
same,GI50,SF-268 CNS,6.69 µM
same,TGI,SF-268 CNS,> 25 µM
same,GI50,M14 melanoma,6.07 µM
same,TGI,M14 melanoma,16.9 µM
same,GI50,M19-MEL melanoma,19.6 µM
same,TGI,M19-MEL melanoma,> 25 µM
same,TGI,SNB-78 CNS,> 25 µM
same,TGI,OVCAR-3 ovarian,22.6 µM
same,GI50,SN12C renal,6.32 µM
same,TGI,SN12C renal,18.9 µM
same,GI50,UACC-62 melanoma,6.75 µM
same,TGI,UACC-62 melanoma,> 25 µM
same,GI50,LOX IMVI melanoma,3.95 µM
same,TGI,LOX IMVI melanoma,7.41 µM
same,TGI,DMS 114 small cell lung,> 25 µM
same,GI50,MALME-3M melanoma,10.1 µM
same,TGI,MALME-3M melanoma,> 25 µM
same,GI50,IGROV1 ovarian,22.9 µM
same,TGI,IGROV1 ovarian,> 25 µM
same,TGI,K-562 leukemia,> 25 µM
same,GI50,KM12 colon,5.26 µM
same,TGI,KM12 colon,11.9 µM
same,GI50,SW-620 colon,7.64 µM
same,TGI,SW-620 colon,> 25 µM
same,TGI,OVCAR-5 ovarian,> 25 µM
same,GI50,A549 NSCLC,6.42 µM
same,TGI,A549 NSCLC,21.6 µM
same,GI50,MOLT-4 leukemia,0.00323 µM
same,TGI,MOLT-4 leukemia,> 25 µM
same,GI50,HCT-15 colon,8.73 µM
same,TGI,HCT-15 colon,> 25 µM
COC(=O)N/N=C(/CC1(O)C(=O)Nc2ccc([N+](=O)[O-])cc21)c1ccccc1 (stereo unspecified),TGI,HCT-116 colon,> 58.6 µM
same,TGI,TK-10 renal,57.6 µM
same,TGI,MDA-N,94.4 µM
same,TGI,LXFL 529 NSCLC,> 100 µM
same,TGI,NCI-H460 lung,> 100 µM
same,TGI,HCC-2998 colon,> 100 µM
same,TGI,MDA-MB-231 breast,44 µM
same,TGI,UACC-257 melanoma,> 95.6 µM
same,TGI,HOP-92 NSCLC,> 100 µM
same,TGI,786-0 renal,> 54.4 µM
same,TGI,UO-31 renal,91.6 µM
same,TGI,RXF 393 renal,51.4 µM
same,TGI,SK-MEL-2 melanoma,> 72.9 µM
same,TGI,OVCAR-4 ovarian,> 84.7 µM
same,TGI,ACHN renal,> 72.2 µM
same,TGI,SNB-75 CNS,54.9 µM
same,TGI,SNB-19 CNS,> 100 µM
same,TGI,PC-3 prostate,> 100 µM
same,TGI,KM20L2 colon,> 100 µM
same,TGI,HT29 colon,> 79.4 µM
same,TGI,XF 498 CNS,46.5 µM
same,TGI,NCI-H23 lung,> 60.1 µM
same,TGI,DU-145 prostate,> 100 µM
same,TGI,OVCAR-8 ovarian,> 68.5 µM
same,TGI,RPMI-8226 leukemia,97.2 µM
same,TGI,SF-539 CNS,> 100 µM
same,TGI,U251 CNS,76.9 µM
same,TGI,SK-OV-3 ovarian,> 100 µM
same,TGI,CCRF-CEM leukemia,> 76.6 µM
same,TGI,DLD-1 colon,> 100 µM
same,TGI,DMS 273 small cell lung,> 100 µM
same,TGI,SR leukemia,> 68.3 µM
same,TGI,HOP-62 NSCLC,> 90.2 µM
same,TGI,NCI-H226 lung,98.3 µM
same,TGI,NCI-H522 lung,> 75.9 µM
same,TGI,BT-549 breast,92.3 µM
same,TGI,MCF7 breast,5.61 µM
same,TGI,SK-MEL-5 melanoma,> 60.9 µM
same,TGI,CAKI-1 renal,> 100 µM
same,TGI,SF-295 CNS,39.2 µM
same,TGI,COLO 205 colon,> 82.5 µM
same,TGI,SK-MEL-28 melanoma,> 70.9 µM
same,TGI,HL-60(TB) leukemia,58.8 µM
same,TGI,SF-268 CNS,> 100 µM
same,TGI,M14 melanoma,> 64.8 µM
same,TGI,T-47D breast,> 100 µM
same,TGI,NCI/ADR-RES ovarian,55.7 µM
same,TGI,M19-MEL melanoma,> 100 µM
same,TGI,SNB-78 CNS,50.6 µM
same,TGI,OVCAR-3 ovarian,> 74.6 µM
same,TGI,EKVX NSCLC,> 93.4 µM
same,TGI,SN12C renal,> 100 µM
same,TGI,UACC-62 melanoma,> 54.7 µM
same,TGI,LOX IMVI melanoma,36.1 µM
same,TGI,DMS 114 small cell lung,> 100 µM
same,TGI,MALME-3M melanoma,> 75.4 µM
same,TGI,IGROV1 ovarian,> 73.6 µM
same,TGI,MDA-MB-435,57.3 µM
same,TGI,K-562 leukemia,> 87.2 µM
same,TGI,HS 578T breast,73.3 µM
same,TGI,KM12 colon,> 63.7 µM
same,TGI,SW-620 colon,> 69.4 µM
same,TGI,OVCAR-5 ovarian,> 100 µM
same,TGI,A549 NSCLC,> 100 µM
same,TGI,MOLT-4 leukemia,> 66.7 µM
same,TGI,A498 renal,25.8 µM
same,TGI,HCT-15 colon,> 70.6 µM
